Patent US20220233444A1, “THIOESTER CATIONIC LIPIDS” (Translate Bio, Inc., priority 2019, published 2022)

System: BALB/c mice
Assay: In vivo expression of hEPO after IM injection of LNP formulations in BALB/c mice
Details: lipid nanoparticles with hEPO mRNA, Cationic Lipid, DMG-PEG2000, Cholesterol and DOPE; single intramuscular injection into gastrocnemius muscle, 0.1 ug; male BALB/c mice; 6 hours post-dose; ELISA; FIG. 1
Experimental: FIG. 1 depicts in vivo protein production resulting from the delivery of mRNA using lipid nanoparticles comprising Compound 30 as described herein.
Lipid nanoparticle formulations comprising human erythropoietin (hEPO) mRNA, Cationic Lipid, DMG-PEG2000, Cholesterol and DOPE were administered intramuscularly to study mRNA delivery and resultant hEPO expression. Male BALB/c mice at 6-8 weeks old are given a single injection of the LNP formulations into the gastrocnemius muscle at a dosage level of 0.1 ug. Blood samples were collected at 6 hours post-dose, hEPO protein expression levels were measured in the sera samples by ELISA and presented in FIG. 1.

Question: Which “hEPO protein expression levels in sera (in vivo protein production)” value does the source give for `CCCCCCCCCCC(O)CN(CCCC(=O)SCCCCSC(=O)CCCN(CC(O)CCCCCCCCCC)CC(O)CCCCCCCCCC)CC(O)CCCCCCCCCC` (stereo not shown) [Compound 30] here?
Answer: high levels of in vivo protein production
